{
  "source": "PubChem BioAssay (NCI)",
  "assay_in_all_cases": "growth of human tumour cells (NCI), 48 h",
  "key": {"MDA-MB-468 breast": {"system": "MDA-MB-468 breast"}, "ACHN renal": {"system": "ACHN renal"}, "BT-549 breast": {"system": "BT-549 breast"}, "CCRF-CEM leukemia": {"system": "CCRF-CEM leukemia"}, "COLO 205 colon": {"system": "COLO 205 colon"}, "DU-145 prostate": {"system": "DU-145 prostate"}, "HCC-2998 colon": {"system": "HCC-2998 colon"}, "HCT-116 colon": {"system": "HCT-116 colon"}, "HCT-15 colon": {"system": "HCT-15 colon"}, "HL-60(TB) leukemia": {"system": "HL-60(TB) leukemia"}, "HT29 colon": {"system": "HT29 colon"}, "IGROV1 ovarian": {"system": "IGROV1 ovarian"}, "K-562 leukemia": {"system": "K-562 leukemia"}, "KM12 colon": {"system": "KM12 colon"}, "M14 melanoma": {"system": "M14 melanoma"}, "MALME-3M melanoma": {"system": "MALME-3M melanoma"}, "MCF7 breast": {"system": "MCF7 breast"}, "MDA-MB-231 breast": {"system": "MDA-MB-231 breast"}, "MDA-MB-435": {"system": "MDA-MB-435"}, "MOLT-4 leukemia": {"system": "MOLT-4 leukemia"}, "OVCAR-4 ovarian": {"system": "OVCAR-4 ovarian"}, "OVCAR-5 ovarian": {"system": "OVCAR-5 ovarian"}, "OVCAR-8 ovarian": {"system": "OVCAR-8 ovarian"}, "SF-539 CNS": {"system": "SF-539 CNS"}, "SK-MEL-2 melanoma": {"system": "SK-MEL-2 melanoma"}, "SK-MEL-28 melanoma": {"system": "SK-MEL-28 melanoma"}, "SK-MEL-5 melanoma": {"system": "SK-MEL-5 melanoma"}, "SN12C renal": {"system": "SN12C renal"}, "SNB-19 CNS": {"system": "SNB-19 CNS"}, "SR leukemia": {"system": "SR leukemia"}, "T-47D breast": {"system": "T-47D breast"}, "TK-10 renal": {"system": "TK-10 renal"}, "UACC-257 melanoma": {"system": "UACC-257 melanoma"}, "UACC-62 melanoma": {"system": "UACC-62 melanoma"}, "UO-31 renal": {"system": "UO-31 renal"}},
  "note": "Several values for one entry are separate records, joined by “and”; a condition that tells them apart may be missing. Equal entries are not always repeated.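 Each compound was tested at five concentrations against cells in 96-well plates for 48 hours. Abbreviation: GI50, concentration required for 50% inhibition of growth. TGI denotes the concentration required for complete inhibition of growth.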",
  "data": [
    {"smiles": "CC[C@H](C)[C@H](NC(=O)c1ccccn1)C(=O)N(C)[C@H](C[C@@H](OC(C)=O)c1nc(C(=O)N[C@@H](Cc2ccccc2)C[C@H](C)C(=O)OC)cs1)C(C)C", "values": [
      {"measurement": "GI50", "setting": "MDA-MB-468 breast", "result": 3.38, "unit": "µM"},
      {"measurement": "TGI", "setting": "MDA-MB-468 breast", "result": 15.4, "unit": "µM"}
    ]},
    {"smiles": "C[C@@H]1C[C@H]2C(=O)OCC(NC(=O)[C@H](Cc3cc(F)cc(F)c3)NC(=O)Nc3ccc(Cl)cc3F)C(=O)N3CCC[C@H]3C(=O)N3CCCC[C@H]3C(=O)N[C@@H](C)C(=O)N2C1", "note": "(some centres undefined)", "values": [
      {"measurement": "GI50", "setting": "MDA-MB-468 breast", "result": "1.43 µM and 0.294 µM"},
      {"measurement": "TGI", "setting": "MDA-MB-468 breast", "result": "18.8 µM and 2.88 µM"}
    ]},
    {"smiles": "O=C(NCCCCCCCCCC[P+](c1ccccc1)(c1ccccc1)c1ccccc1)c1ccc(-n2nc(-c3ccccc3O)nc2-c2ccccc2O)cc1", "values": [
      {"measurement": "GI50", "setting": "ACHN renal", "result": 0.379, "unit": "µM"},
      {"measurement": "TGI", "setting": "ACHN renal", "result": 1.36, "unit": "µM"},
      {"measurement": "GI50", "setting": "BT-549 breast", "result": 0.104, "unit": "µM"},
      {"measurement": "TGI", "setting": "BT-549 breast", "result": 0.673, "unit": "µM"},
      {"measurement": "GI50", "setting": "CCRF-CEM leukemia", "result": 0.0396, "unit": "µM"},
      {"measurement": "TGI", "setting": "CCRF-CEM leukemia", "result": "> 100", "unit": "µM"},
      {"measurement": "GI50", "setting": "COLO 205 colon", "result": 0.0508, "unit": "µM"},
      {"measurement": "TGI", "setting": "COLO 205 colon", "result": 0.268, "unit": "µM"},
      {"measurement": "GI50", "setting": "DU-145 prostate", "result": 0.0464, "unit": "µM"},
      {"measurement": "TGI", "setting": "DU-145 prostate", "result": 1.63, "unit": "µM"},
      {"measurement": "GI50", "setting": "HCC-2998 colon", "result": 0.0574, "unit": "µM"},
      {"measurement": "TGI", "setting": "HCC-2998 colon", "result": 1.43, "unit": "µM"},
      {"measurement": "GI50", "setting": "HCT-116 colon", "result": 0.0377, "unit": "µM"},
      {"measurement": "TGI", "setting": "HCT-116 colon", "result": 1.08, "unit": "µM"},
      {"measurement": "GI50", "setting": "HCT-15 colon", "result": 0.566, "unit": "µM"},
      {"measurement": "TGI", "setting": "HCT-15 colon", "result": 2.48, "unit": "µM"},
      {"measurement": "GI50", "setting": "HL-60(TB) leukemia", "result": 0.0565, "unit": "µM"},
      {"measurement": "TGI", "setting": "HL-60(TB) leukemia", "result": 0.461, "unit": "µM"},
      {"measurement": "GI50", "setting": "HT29 colon", "result": 0.0401, "unit": "µM"},
      {"measurement": "TGI", "setting": "HT29 colon", "result": 0.789, "unit": "µM"},
      {"measurement": "GI50", "setting": "IGROV1 ovarian", "result": 0.0483, "unit": "µM"},
      {"measurement": "TGI", "setting": "IGROV1 ovarian", "result": 1.18, "unit": "µM"},
      {"measurement": "GI50", "setting": "K-562 leukemia", "result": 0.0449, "unit": "µM"},
      {"measurement": "TGI", "setting": "K-562 leukemia", "result": 3.21, "unit": "µM"},
      {"measurement": "GI50", "setting": "KM12 colon", "result": 0.203, "unit": "µM"},
      {"measurement": "TGI", "setting": "KM12 colon", "result": 1.34, "unit": "µM"},
      {"measurement": "GI50", "setting": "M14 melanoma", "result": 0.0825, "unit": "µM"},
      {"measurement": "TGI", "setting": "M14 melanoma", "result": 1.32, "unit": "µM"},
      {"measurement": "GI50", "setting": "MALME-3M melanoma", "result": 0.0307, "unit": "µM"},
      {"measurement": "TGI", "setting": "MALME-3M melanoma", "result": 0.19, "unit": "µM"},
      {"measurement": "GI50", "setting": "MCF7 breast", "result": 0.0417, "unit": "µM"},
      {"measurement": "TGI", "setting": "MCF7 breast", "result": 0.953, "unit": "µM"},
      {"measurement": "GI50", "setting": "MDA-MB-231 breast", "result": 0.0993, "unit": "µM"},
      {"measurement": "TGI", "setting": "MDA-MB-231 breast", "result": 0.728, "unit": "µM"},
      {"measurement": "GI50", "setting": "MDA-MB-435", "result": 0.0409, "unit": "µM"},
      {"measurement": "TGI", "setting": "MDA-MB-435", "result": 1.11, "unit": "µM"},
      {"measurement": "GI50", "setting": "MDA-MB-468 breast", "result": 0.0255, "unit": "µM"},
      {"measurement": "TGI", "setting": "MDA-MB-468 breast", "result": 0.121, "unit": "µM"},
      {"measurement": "GI50", "setting": "MOLT-4 leukemia", "result": 0.0585, "unit": "µM"},
      {"measurement": "TGI", "setting": "MOLT-4 leukemia", "result": 1.43, "unit": "µM"},
      {"measurement": "GI50", "setting": "OVCAR-4 ovarian", "result": 0.18, "unit": "µM"},
      {"measurement": "TGI", "setting": "OVCAR-4 ovarian", "result": 2.21, "unit": "µM"},
      {"measurement": "GI50", "setting": "OVCAR-5 ovarian", "result": 0.192, "unit": "µM"},
      {"measurement": "TGI", "setting": "OVCAR-5 ovarian", "result": 0.926, "unit": "µM"},
      {"measurement": "GI50", "setting": "OVCAR-8 ovarian", "result": 0.074, "unit": "µM"},
      {"measurement": "TGI", "setting": "OVCAR-8 ovarian", "result": 1.22, "unit": "µM"},
      {"measurement": "GI50", "setting": "SF-539 CNS", "result": 0.172, "unit": "µM"},
      {"measurement": "TGI", "setting": "SF-539 CNS", "result": 0.716, "unit": "µM"},
      {"measurement": "GI50", "setting": "SK-MEL-2 melanoma", "result": 0.133, "unit": "µM"},
      {"measurement": "TGI", "setting": "SK-MEL-2 melanoma", "result": 0.53, "unit": "µM"},
      {"measurement": "GI50", "setting": "SK-MEL-28 melanoma", "result": 0.115, "unit": "µM"},
      {"measurement": "TGI", "setting": "SK-MEL-28 melanoma", "result": 1.59, "unit": "µM"},
      {"measurement": "GI50", "setting": "SK-MEL-5 melanoma", "result": 0.165, "unit": "µM"},
      {"measurement": "TGI", "setting": "SK-MEL-5 melanoma", "result": 0.447, "unit": "µM"},
      {"measurement": "GI50", "setting": "SN12C renal", "result": 0.0407, "unit": "µM"},
      {"measurement": "TGI", "setting": "SN12C renal", "result": 0.721, "unit": "µM"},
      {"measurement": "GI50", "setting": "SNB-19 CNS", "result": 0.0505, "unit": "µM"},
      {"measurement": "TGI", "setting": "SNB-19 CNS", "result": 1.17, "unit": "µM"},
      {"measurement": "GI50", "setting": "SR leukemia", "result": "< 0.0191", "unit": "µM"},
      {"measurement": "TGI", "setting": "SR leukemia", "result": "> 40.5", "unit": "µM"},
      {"measurement": "GI50", "setting": "T-47D breast", "result": 0.0352, "unit": "µM"},
      {"measurement": "TGI", "setting": "T-47D breast", "result": 0.522, "unit": "µM"},
      {"measurement": "GI50", "setting": "TK-10 renal", "result": 0.33, "unit": "µM"},
      {"measurement": "TGI", "setting": "TK-10 renal", "result": 1.5, "unit": "µM"},
      {"measurement": "GI50", "setting": "UACC-257 melanoma", "result": 0.0904, "unit": "µM"},
      {"measurement": "TGI", "setting": "UACC-257 melanoma", "result": 0.792, "unit": "µM"},
      {"measurement": "GI50", "setting": "UACC-62 melanoma", "result": 0.084, "unit": "µM"},
      {"measurement": "TGI", "setting": "UACC-62 melanoma", "result": 0.568, "unit": "µM"},
      {"measurement": "GI50", "setting": "UO-31 renal", "result": 0.428, "unit": "µM"},
      {"measurement": "TGI", "setting": "UO-31 renal", "result": 1.93, "unit": "µM"}
    ]}
  ]
}
